Laboratory results published in the NIST ThermoML archive (doi:10.1016/j.jct.2008.10.010).
± gives the expanded uncertainty stated by the source.

Assay: molar heat capacity at constant pressure; xn = mol fraction of the nth substance listed
Settings: 101.3 kPa, Liquid, Small sample (50 mg) DSC

## CCC(C)(C)O [2-methylbutan-2-ol] + CCCCCCC
284.14 K, x1 = 0.0061
  molar heat capacity at constant pressure: 220.41 ± 3.4 J/K/mol
284.14 K, x1 = 0.0249
  molar heat capacity at constant pressure: 226.02 ± 3.5 J/K/mol
284.14 K, x1 = 0.0494
  molar heat capacity at constant pressure: 229.4 ± 3.5 J/K/mol
284.14 K, x1 = 0.1999
  molar heat capacity at constant pressure: 234.97 ± 3.6 J/K/mol
284.14 K, x1 = 0.4051
  molar heat capacity at constant pressure: 235.79 ± 3.6 J/K/mol
284.14 K, x1 = 0.5981
  molar heat capacity at constant pressure: 234.72 ± 3.6 J/K/mol
284.14 K, x1 = 0.7015
  molar heat capacity at constant pressure: 233.37 ± 3.6 J/K/mol
284.14 K, x1 = 0.9139
  molar heat capacity at constant pressure: 231.9 ± 3.6 J/K/mol
284.14 K, x1 = 0.9609
  molar heat capacity at constant pressure: 232.4 ± 3.6 J/K/mol
284.16 K, x1 = 0.1
  molar heat capacity at constant pressure: 232.58 ± 3.6 J/K/mol
284.16 K, x1 = 0.1547
  molar heat capacity at constant pressure: 234.25 ± 3.6 J/K/mol
284.16 K, x1 = 0.2993
  molar heat capacity at constant pressure: 235.98 ± 3.7 J/K/mol
284.16 K, x1 = 0.4986
  molar heat capacity at constant pressure: 235.43 ± 3.6 J/K/mol
284.18 K, x1 = 0.8023
  molar heat capacity at constant pressure: 232.34 ± 3.6 J/K/mol
285.15 K, x1 = 0.0061
  molar heat capacity at constant pressure: 220.65 ± 3.4 J/K/mol
285.15 K, x1 = 0.0249
  molar heat capacity at constant pressure: 226.27 ± 3.5 J/K/mol
285.15 K, x1 = 0.0494
  molar heat capacity at constant pressure: 229.86 ± 3.6 J/K/mol
285.15 K, x1 = 0.1
  molar heat capacity at constant pressure: 233.16 ± 3.6 J/K/mol
285.15 K, x1 = 0.1547
  molar heat capacity at constant pressure: 234.99 ± 3.6 J/K/mol
285.15 K, x1 = 0.1999
  molar heat capacity at constant pressure: 235.77 ± 3.6 J/K/mol
285.15 K, x1 = 0.2993
  molar heat capacity at constant pressure: 236.86 ± 3.7 J/K/mol
285.15 K, x1 = 0.4051
  molar heat capacity at constant pressure: 236.78 ± 3.7 J/K/mol
285.15 K, x1 = 0.4986
  molar heat capacity at constant pressure: 236.52 ± 3.7 J/K/mol
285.15 K, x1 = 0.5981
  molar heat capacity at constant pressure: 235.88 ± 3.6 J/K/mol
285.15 K, x1 = 0.7015
  molar heat capacity at constant pressure: 234.58 ± 3.6 J/K/mol
285.15 K, x1 = 0.8023
  molar heat capacity at constant pressure: 233.57 ± 3.6 J/K/mol
285.15 K, x1 = 0.9609
  molar heat capacity at constant pressure: 233.54 ± 3.6 J/K/mol
285.51 K, x1 = 0.9139
  molar heat capacity at constant pressure: 233.61 ± 3.6 J/K/mol
286.16 K, x1 = 0.0061
  molar heat capacity at constant pressure: 220.9 ± 3.4 J/K/mol
286.16 K, x1 = 0.0249
  molar heat capacity at constant pressure: 226.64 ± 3.5 J/K/mol
286.16 K, x1 = 0.0494
  molar heat capacity at constant pressure: 230.34 ± 3.6 J/K/mol
286.16 K, x1 = 0.1
  molar heat capacity at constant pressure: 233.84 ± 3.6 J/K/mol
286.16 K, x1 = 0.1547
  molar heat capacity at constant pressure: 235.78 ± 3.6 J/K/mol
286.16 K, x1 = 0.1999
  molar heat capacity at constant pressure: 236.66 ± 3.7 J/K/mol
286.16 K, x1 = 0.2993
  molar heat capacity at constant pressure: 237.91 ± 3.7 J/K/mol
286.16 K, x1 = 0.4051
  molar heat capacity at constant pressure: 237.9 ± 3.7 J/K/mol
286.16 K, x1 = 0.4986
  molar heat capacity at constant pressure: 237.63 ± 3.7 J/K/mol
286.16 K, x1 = 0.5981
  molar heat capacity at constant pressure: 237.03 ± 3.7 J/K/mol
286.16 K, x1 = 0.7015
  molar heat capacity at constant pressure: 235.81 ± 3.6 J/K/mol
286.16 K, x1 = 0.8023
  molar heat capacity at constant pressure: 234.67 ± 3.6 J/K/mol
286.16 K, x1 = 0.9139
  molar heat capacity at constant pressure: 234.27 ± 3.6 J/K/mol
286.16 K, x1 = 0.9609
  molar heat capacity at constant pressure: 234.56 ± 3.6 J/K/mol
287.14 K, x1 = 0.0061
  molar heat capacity at constant pressure: 221.16 ± 3.4 J/K/mol
287.14 K, x1 = 0.0249
  molar heat capacity at constant pressure: 226.92 ± 3.5 J/K/mol
287.14 K, x1 = 0.0494
  molar heat capacity at constant pressure: 230.72 ± 3.6 J/K/mol
287.14 K, x1 = 0.1
  molar heat capacity at constant pressure: 234.39 ± 3.6 J/K/mol
287.14 K, x1 = 0.1547
  molar heat capacity at constant pressure: 236.4 ± 3.7 J/K/mol
287.14 K, x1 = 0.1999
  molar heat capacity at constant pressure: 237.42 ± 3.7 J/K/mol
287.14 K, x1 = 0.2993
  molar heat capacity at constant pressure: 238.78 ± 3.7 J/K/mol
287.14 K, x1 = 0.4051
  molar heat capacity at constant pressure: 238.87 ± 3.7 J/K/mol
287.14 K, x1 = 0.4986
  molar heat capacity at constant pressure: 238.65 ± 3.7 J/K/mol
287.14 K, x1 = 0.5981
  molar heat capacity at constant pressure: 238.11 ± 3.7 J/K/mol
287.14 K, x1 = 0.7015
  molar heat capacity at constant pressure: 236.94 ± 3.7 J/K/mol
287.14 K, x1 = 0.8023
  molar heat capacity at constant pressure: 235.73 ± 3.6 J/K/mol
287.14 K, x1 = 0.9139
  molar heat capacity at constant pressure: 235.37 ± 3.6 J/K/mol
287.14 K, x1 = 0.9609
  molar heat capacity at constant pressure: 235.45 ± 3.6 J/K/mol
288.15 K, x1 = 0.0061
  molar heat capacity at constant pressure: 221.55 ± 3.4 J/K/mol
288.15 K, x1 = 0.0249
  molar heat capacity at constant pressure: 227.34 ± 3.5 J/K/mol
288.15 K, x1 = 0.0494
  molar heat capacity at constant pressure: 231.29 ± 3.6 J/K/mol
288.15 K, x1 = 0.1
  molar heat capacity at constant pressure: 235.13 ± 3.6 J/K/mol
288.15 K, x1 = 0.1547
  molar heat capacity at constant pressure: 237.25 ± 3.7 J/K/mol
288.15 K, x1 = 0.1999
  molar heat capacity at constant pressure: 238.28 ± 3.7 J/K/mol
288.15 K, x1 = 0.2993
  molar heat capacity at constant pressure: 239.83 ± 3.7 J/K/mol
288.15 K, x1 = 0.4051
  molar heat capacity at constant pressure: 240.03 ± 3.7 J/K/mol
288.15 K, x1 = 0.4986
  molar heat capacity at constant pressure: 239.84 ± 3.7 J/K/mol
288.15 K, x1 = 0.5981
  molar heat capacity at constant pressure: 239.38 ± 3.7 J/K/mol
288.15 K, x1 = 0.7015
  molar heat capacity at constant pressure: 238.26 ± 3.7 J/K/mol
288.15 K, x1 = 0.8023
  molar heat capacity at constant pressure: 237.01 ± 3.7 J/K/mol
288.15 K, x1 = 0.9139
  molar heat capacity at constant pressure: 236.54 ± 3.7 J/K/mol
288.15 K, x1 = 0.9609
  molar heat capacity at constant pressure: 236.62 ± 3.7 J/K/mol
289.14 K, x1 = 0.0061
  molar heat capacity at constant pressure: 221.82 ± 3.4 J/K/mol
289.14 K, x1 = 0.0249
  molar heat capacity at constant pressure: 227.63 ± 3.5 J/K/mol
289.14 K, x1 = 0.0494
  molar heat capacity at constant pressure: 231.74 ± 3.6 J/K/mol
289.14 K, x1 = 0.1
  molar heat capacity at constant pressure: 235.73 ± 3.6 J/K/mol
289.14 K, x1 = 0.1547
  molar heat capacity at constant pressure: 237.99 ± 3.7 J/K/mol
289.14 K, x1 = 0.1999
  molar heat capacity at constant pressure: 239.11 ± 3.7 J/K/mol
289.14 K, x1 = 0.2993
  molar heat capacity at constant pressure: 240.71 ± 3.7 J/K/mol
289.14 K, x1 = 0.4051
  molar heat capacity at constant pressure: 241.03 ± 3.7 J/K/mol
289.14 K, x1 = 0.4986
  molar heat capacity at constant pressure: 240.91 ± 3.7 J/K/mol
289.14 K, x1 = 0.5981
  molar heat capacity at constant pressure: 240.51 ± 3.7 J/K/mol
289.14 K, x1 = 0.7015
  molar heat capacity at constant pressure: 239.53 ± 3.7 J/K/mol
289.14 K, x1 = 0.8023
  molar heat capacity at constant pressure: 238.27 ± 3.7 J/K/mol
289.14 K, x1 = 0.9139
  molar heat capacity at constant pressure: 237.62 ± 3.7 J/K/mol
289.14 K, x1 = 0.9609
  molar heat capacity at constant pressure: 237.61 ± 3.7 J/K/mol
290.14 K, x1 = 0.0061
  molar heat capacity at constant pressure: 222.02 ± 3.4 J/K/mol
290.14 K, x1 = 0.0249
  molar heat capacity at constant pressure: 227.88 ± 3.5 J/K/mol
290.14 K, x1 = 0.0494
  molar heat capacity at constant pressure: 232.1 ± 3.6 J/K/mol
290.14 K, x1 = 0.1
  molar heat capacity at constant pressure: 236.25 ± 3.7 J/K/mol
290.14 K, x1 = 0.1547
  molar heat capacity at constant pressure: 238.66 ± 3.7 J/K/mol
290.14 K, x1 = 0.1999
  molar heat capacity at constant pressure: 239.89 ± 3.7 J/K/mol
290.14 K, x1 = 0.2993
  molar heat capacity at constant pressure: 241.62 ± 3.7 J/K/mol
290.14 K, x1 = 0.4051
  molar heat capacity at constant pressure: 242.04 ± 3.8 J/K/mol
290.14 K, x1 = 0.4986
  molar heat capacity at constant pressure: 241.98 ± 3.8 J/K/mol
290.14 K, x1 = 0.5981
  molar heat capacity at constant pressure: 241.64 ± 3.7 J/K/mol
290.14 K, x1 = 0.7015
  molar heat capacity at constant pressure: 240.72 ± 3.7 J/K/mol
290.14 K, x1 = 0.8023
  molar heat capacity at constant pressure: 239.53 ± 3.7 J/K/mol
290.14 K, x1 = 0.9139
  molar heat capacity at constant pressure: 238.75 ± 3.7 J/K/mol
290.14 K, x1 = 0.9609
  molar heat capacity at constant pressure: 238.68 ± 3.7 J/K/mol
291.15 K, x1 = 0.0061
  molar heat capacity at constant pressure: 222.4 ± 3.5 J/K/mol
291.15 K, x1 = 0.0249
  molar heat capacity at constant pressure: 228.24 ± 3.5 J/K/mol
291.15 K, x1 = 0.0494
  molar heat capacity at constant pressure: 232.63 ± 3.6 J/K/mol
291.15 K, x1 = 0.1
  molar heat capacity at constant pressure: 236.91 ± 3.7 J/K/mol
291.15 K, x1 = 0.1547
  molar heat capacity at constant pressure: 239.46 ± 3.7 J/K/mol
291.15 K, x1 = 0.1999
  molar heat capacity at constant pressure: 240.73 ± 3.7 J/K/mol
291.15 K, x1 = 0.2993
  molar heat capacity at constant pressure: 242.6 ± 3.8 J/K/mol
291.15 K, x1 = 0.4051
  molar heat capacity at constant pressure: 243.13 ± 3.8 J/K/mol
291.15 K, x1 = 0.4986
  molar heat capacity at constant pressure: 243.16 ± 3.8 J/K/mol
291.15 K, x1 = 0.5981
  molar heat capacity at constant pressure: 242.84 ± 3.8 J/K/mol
291.15 K, x1 = 0.7015
  molar heat capacity at constant pressure: 241.97 ± 3.8 J/K/mol
291.15 K, x1 = 0.8023
  molar heat capacity at constant pressure: 240.74 ± 3.7 J/K/mol
291.15 K, x1 = 0.9139
  molar heat capacity at constant pressure: 239.92 ± 3.7 J/K/mol
291.15 K, x1 = 0.9609
  molar heat capacity at constant pressure: 239.8 ± 3.7 J/K/mol
292.14 K, x1 = 0.0061
  molar heat capacity at constant pressure: 222.7 ± 3.5 J/K/mol
292.14 K, x1 = 0.0494
  molar heat capacity at constant pressure: 233.02 ± 3.6 J/K/mol
292.14 K, x1 = 0.1
  molar heat capacity at constant pressure: 237.52 ± 3.7 J/K/mol
292.14 K, x1 = 0.1547
  molar heat capacity at constant pressure: 240.13 ± 3.7 J/K/mol
292.14 K, x1 = 0.1999
  molar heat capacity at constant pressure: 241.49 ± 3.7 J/K/mol
292.14 K, x1 = 0.2993
  molar heat capacity at constant pressure: 243.55 ± 3.8 J/K/mol
292.14 K, x1 = 0.4051
  molar heat capacity at constant pressure: 244.19 ± 3.8 J/K/mol
292.14 K, x1 = 0.4986
  molar heat capacity at constant pressure: 244.28 ± 3.8 J/K/mol
292.14 K, x1 = 0.5981
  molar heat capacity at constant pressure: 243.93 ± 3.8 J/K/mol
292.14 K, x1 = 0.7015
  molar heat capacity at constant pressure: 243.17 ± 3.8 J/K/mol
292.14 K, x1 = 0.8023
  molar heat capacity at constant pressure: 241.93 ± 3.8 J/K/mol
292.14 K, x1 = 0.9139
  molar heat capacity at constant pressure: 241.07 ± 3.7 J/K/mol
